Source: patent US8623859B2, “Bradykinin B1 antagonists” (Evotec AG, priority 2008, dated 2014)
Where a name gives a salt, the structure may show the parent alone.

Biological target: T1, human B1 (Homo sapiens, UniProt P46663)
T1 construct: host or cells: CHO-K1
T1 sequence (P46663 1-353): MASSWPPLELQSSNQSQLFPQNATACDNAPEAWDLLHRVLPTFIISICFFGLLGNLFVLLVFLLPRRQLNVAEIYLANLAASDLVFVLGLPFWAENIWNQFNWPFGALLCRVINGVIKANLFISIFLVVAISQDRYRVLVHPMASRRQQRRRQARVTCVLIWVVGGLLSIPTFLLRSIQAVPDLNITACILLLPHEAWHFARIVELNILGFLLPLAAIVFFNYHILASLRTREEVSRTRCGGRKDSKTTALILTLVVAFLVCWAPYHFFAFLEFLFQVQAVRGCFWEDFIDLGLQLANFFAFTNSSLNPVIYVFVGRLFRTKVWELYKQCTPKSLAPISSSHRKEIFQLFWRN
Test: Calcium flux assay for Bradykinin B1 antagonist, CHO-K1 cell line expressing human B1
Assay type: cell-based
Conditions: CHO-K1 cells expressing human B1, agonist Lys-(Des-Arg)-Bradykinin, read-out: Potency (IC50 value against human B1)
How it was run: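 Inhibition of B1 agonist-evoked intracellular Ca2+ rise was followed by continuous fluorescence at 538 nm, with integrated, background-normalized signals plotted versus log compound concentration. Test compounds (eight 10-fold dilutions, triplicate, 1% DMSO final) were added 30 min at 25° C beforehand to Fluo-4AM-loaded human B1 CHO-K1 cells in pH 7.4 assay buffer.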

Compound	IC50
COc1cc(C)c(S(=O)(=O)N(C)Cc2cc(C(=O)NCCc3ccc(Nc4nccc(N)n4)cc3)co2)c(C)c1 [Ex 44, N-(2-{4-[(4-aminopyrimidin-2-yl)amino]phenyl}ethyl)-5-({[(4-methoxy-2,6-dimethylphenyl)sulfonyl](methyl)amino}methyl)furan-3-carboxamide]	100 to 1000 nM
COc1cc(C)c(S(=O)(=O)N(C)Cc2nnc(C(=O)N(C)Cc3ccc(CN4CCC(OC)C4)cc3)o2)c(C)c1 (centres unmarked) [Ex 282, 5-({[(4-Methoxy-2,6-dimethylphenyl)sulfonyl](methyl)amino}methyl)-N-{4-[(3-methoxypyrrolidin-1-yl)methyl]benzyl}-N-methyl-1,3,4-oxadiazole-2-carboxamide]	100 to 1000 nM
COc1cc(C)c(S(=O)(=O)N(C)Cc2nnc(C(=O)NCCc3ccc(C4=NCCN4)cc3)s2)c(C)c1 [Ex 330, N-{2-[4-(4,5-Dihydro-1H-imidazol-2-yl)phenyl]ethyl}-5-({[(4-methoxy-2,6-dimethylphenyl)sulfonyl](methyl)amino}methyl)-1,3,4-thiadiazole-2-carboxamide trifluoroacetamide]	< 10 nM
COc1cc(C)c(S(=O)(=O)N(C)Cc2cc(C(=O)N(C)Cc3ccc(C4=NCC(C)(C)CN4)cc3)co2)c(C)c1 [Ex 40, N-[4-(5,5-dimethyl-1,4,5,6-tetrahydropyrimidin-2-yl)benzyl]-5-({[(4-methoxy-2,6-dimethylphenyl)sulfonyl](methyl)amino}methyl)-N-methylfuran-3-carboxamide]	100 to 1000 nM
COc1cc(C)c(S(=O)(=O)N(Cc2cc(C(=O)N(C)Cc3ccc(CN4CCC(N(C)C)C4)cc3)co2)C2CC2)c(C)c1 (centres unmarked) [Ex 140, 5-({Cyclopropyl[(4-methoxy-2,6-dimethylphenyl)sulfonyl]amino}methyl)-N-(4-{[3-(dimethylamino)pyrrolidin-1-yl]methyl}benzyl)-N-methylfuran-3-carboxamide]	10 to 100 nM
COc1cc(C)c(S(=O)(=O)N(Cc2cc(C(=O)N3CCN(CC(=O)Nc4cccnc4)CC3)co2)C2CC2)c(C)c1 [Ex 117, 2-(4-{[5-({Cyclopropyl[(4-methoxy-2,6-dimethylphenyl)sulfonyl]amino}methyl)furan-3-yl]carbonyl}piperazin-1-yl)-N-pyridin-3-ylacetamide trifluoroacetate]	100 to 1000 nM
COc1cc(C)c(S(=O)(=O)N(C)Cc2cc(C(=O)N(C)Cc3ccc(CN4CCC(O)CC4)cc3)co2)c(C)c1 [Ex 126, N-{4-[(4-Hydroxypiperidin-1-yl)methyl]benzyl}-5-({[(4-methoxy-2,6-dimethylphenyl)sulfonyl](methyl)amino}methyl)-N-methylfuran-3-carboxamide]	10 to 100 nM
COc1cc(C)c(S(=O)(=O)N(Cc2nc(C(=O)N3CCN(Cc4ccc(F)nc4)CC3)co2)C2CC2)c(C)c1 [Ex 234, N-Cyclopropyl-N-{[4-({4-[(6-fluoropyridin-3-yl)methyl]piperazin-1-yl}carbonyl)-1,3-oxazol-2-yl]methyl}-4-methoxy-2,6-dimethylbenzenesulfonamide trifluoroacetate]	100 to 1000 nM
CN(CCc1ccc(C2=NCCN2)cc1)C(=O)c1coc(CN(C2CC2)S(=O)(=O)c2c(Cl)cccc2Cl)n1 [Ex 213, 2-({Cyclopropyl[(2,6-dichlorophenyl)sulfonyl]amino}methyl)-N-{2-[4-(4,5-dihydro-1H-imidazol-2-yl)phenyl]ethyl}-N-methyl-1,3-oxazole-4-carboxamide trifluoroacetate]	100 to 1000 nM
COc1cc(C)c(S(=O)(=O)N(C)Cc2cc(C(=O)NCc3ccc(Nc4cccc[n+]4C)cc3)co2)c(C)c1 [Ex 12, 2-({4-[({[5-({[(4-methoxy-2,6-dimethylphenyl)sulfonyl](methyl)amino}methyl)furan-3-yl]carbonyl}amino)methyl]phenyl}amino)-1-methylpyridinium iodide]	100 to 1000 nM
COc1cc(C)c(S(=O)(=O)N(C)Cc2cc(C(=O)NCc3ccc(CN4CCCCC4)cc3)co2)c(C)c1 [Ex 100, 5-({[(4-Methoxy-2,6-dimethylphenyl)sulfonyl](methyl)amino}methyl)-N-[4-(piperidin-1-ylmethyl)benzyl]furan-3-carboxamide trifluoroacetate]	100 to 1000 nM
COc1cc(C)c(S(=O)(=O)N(C)Cc2cc(C(=O)N(C)Cc3cccc(CN4CCCC4)c3)co2)c(C)c1 [Ex 8, 5-({[(4-methoxy-2,6-dimethylphenyl)sulfonyl](methyl)amino}methyl)-N-methyl-N-[3-(pyrrolidin-1-ylmethyl)benzyl]furan-3-carboxamide]	10 to 100 nM

Next, values leading:

IC50	Compound
100 to 1000 nM	COc1cc(C)c(S(=O)(=O)N(C)Cc2noc(C(=O)N3CCN(CCN4CCCC4)CC3)n2)c(C)c1 [Ex 308, 4-Methoxy-N,2,6-trimethyl-N-[(5-{[4-(2-pyrrolidin-1-ylethyl)piperazin-1-yl]carbonyl}-1,2,4-oxadiazol-3-yl)methyl]benzenesulfonamide]
10 to 100 nM	COc1cc(C)c(S(=O)(=O)N(Cc2nnc(C(=O)N3CCN(CCCN4CCCC4)CC3)s2)C2CC2)c(C)c1 [Ex 336, N-Cyclopropyl-4-methoxy-2,6-dimethyl-N-[(5-{[4-(3-pyrrolidin-1-ylpropyl)piperazin-1-yl]carbonyl}-1,3,4-thiadiazol-2-yl)methyl]benzenesulfonamide]
< 10 nM	COc1cc(C)c(S(=O)(=O)N(Cc2nc(C(=O)N3CCN(CC4CCNCC4)CC3)co2)C2CC2)c(C)c1 [Ex 230, N-Cyclopropyl-4-methoxy-2,6-dimethyl-N-[(4-{[4-(piperidin-4-ylmethyl)piperazin-1-yl]carbonyl}-1,3-oxazol-2-yl)methyl]benzenesulfonamide trifluoroacetate]
100 to 1000 nM	COc1cc(C)c(S(=O)(=O)N(Cc2nc(C(=O)N3CCC(OC4CCN(C)C4)CC3)co2)C2CC2)c(C)c1 (centres unmarked) [Ex 247, N-Cyclopropyl-4-methoxy-2,6-dimethyl-N-{[4-({4-[(1-methylpyrrolidin-3-yl)oxy]piperidin-1-yl}carbonyl)-1,3-oxazol-2-yl]methyl}benzenesulfonamide]
10 to 100 nM	COc1cc(C)c(S(=O)(=O)N(Cc2nnc(C(=O)N3CCN(CCN4CCCC4)CC3)o2)C2CC2)c(C)c1 [Ex 277, N-Cyclopropyl-4-methoxy-2,6-dimethyl-N-[(5-{[4-(2-pyrrolidin-1-ylethyl)piperazin-1-yl]carbonyl}-1,3,4-oxadiazol-2-yl)methyl]benzenesulfonamide]
< 10 nM	COc1cc(C)c(S(=O)(=O)N(Cc2nnc(C(=O)N3CCC(CCN4CCCC4)CC3)s2)C2CC2)c(C)c1 [Ex 337, N-Cyclopropyl-4-methoxy-2,6-dimethyl-N-[(5-{[4-(2-pyrrolidin-1-ylethyl)piperidin-1-yl]carbonyl}-1,3,4-thiadiazol-2-yl)methyl]benzenesulfonamide]
< 10 nM	COc1cc(C)c(S(=O)(=O)N(Cc2nc(C(=O)N3CCN(CCCN(C)C)CC3)co2)C2CC2)c(C)c1 [Ex 196, N-Cyclopropyl-N-{[4-({4-[3-(dimethylamino)propyl]piperazin-1-yl}carbonyl)-1,3-oxazol-2-yl]methyl}-4-methoxy-2,6-dimethylbenzenesulfonamide trifluoroacetate]
100 to 1000 nM	COc1cc(C)c(S(=O)(=O)N(Cc2cc(C(=O)N3CCC(N4CCN(C)CC4)CC3)co2)C2CC2)c(C)c1 [Ex 119, N-Cyclopropyl-4-methoxy-2,6-dimethyl-N-[(4-{[4-(4-methylpiperazin-1-yl)piperidin-1-yl]carbonyl}furan-2-yl)methyl]benzenesulfonamide trifluoroacetate]
